We go through one molecule from patent US7678791B2, “Nitroheteroaryl-containing rifamycin derivatives” (Cumbre IP Ventures, L.P., priority 2006, dated 2010).

In the assay the test system is Mycobacterium tuberculosis H37Rv (rif-resistant). As to the kind of experiment: microbe, parasite or virus in culture. The format is cell-based.

Each structure is given as a SMILES string. In brackets after ≈: the same amount, converted by molar mass.

For `CO[C@H]1/C=C/O[C@@]2(C)Oc3c(C)c(O)c4c(c3C2=O)C2=NC3(CCN(CCn5c([N+](=O)[O-])cnc5C)CC3)NC2=C(NC(=O)/C(C)=C\C=C\[C@H](C)[C@H](O)[C@@H](C)[C@@H](O)[C@@H](C)[C@H](OC(C)=O)[C@@H]1C)C4=O` [Example 1, 4-Deoxy-3,4-[2-spiro-[1-[2-(2-methyl-5-nitro-imidazol-1-yl)ethyl]-piperidin-4-yl]]-(1H)-imidazo-(2,5-dihydro)rifamycin S], the “antimicrobial activity in words, rifampin-resistant M. tuberculosis” value is reported as “retains activity”. Under “Mycobacterium tuberculosis, H37RV”, this molecule showed an MIC of 5 µg/mL (≈ 5.3 µM).
